For data set [1], the system named is sheep model for pulmonary fibrosis. The experiment in a line: Example 2: overall conclusion on efficacy in sheep model of pulmonary fibrosis. In kind it is in vivo. The text has this:
(§1) In this study, a total of 10 sheep were used. Fibrosis in two lung segments of each sheep in a similar manner as performed in Example 1 herein. Using this procedure (as detailed further below) the fibrosis was confined to small, isolated regions in the lungs leaving the remaining 90-95% of the healthy unaffected lungs to undertake normal respiratory function.
(§2) All sheep (n=10) in the study were challenged with 2 single doses of bleomycin (3 units) per lung segment, a fortnight apart and the animals were kept for a little over 5 weeks after the final bleomycin dose. Bleomycin is a well-known agent for inducing fibrosis in the lungs. The administration procedure involves inserting a bronchoscope into lung segments in the right and left lung, and then slowly infusing the bleomycin into two segments as shown in FIG. 2 via the bronchoscope biopsy port.
(§3) In the study detailed in Example 1 herein, the dose-rate of pinocembrin was 7 mg pinocembrin per sheep, per week.
For control purposes the lung segment in the opposite lung was used as a bleomycin-positive, without drug, control, as indicated in FIG. 1. The bioactive molecules in vehicle, were delivered as 5 ml infusions through the biopsy port of the bronchoscope. […]

For data set [2] the following is noted: soxhlet extraction of dry leaves with n-hexane or methanol; cited from earlier work.
Data set [3] has as its system sheep model for pulmonary fibrosis, bleomycin-injured lung segments. The experiment in a line: Example 2: bronchoalveolar lavage (BAL) inflammatory cell counts. It counts as in vivo.
Description: as §1, §2, §3
For control purposes the lung segment in the opposite lung was used as a bleomycin-positive, without drug, control, as indicated in FIG. 1. The bioactive molecules in vehicle, were delivered as 5 ml infusions through the biopsy port of the bronchoscope. Note that to nullify any small differences (e.g. physiological or anatomical etc.) between the left and right lungs, the infusions of pinocembrin were randomized between the left and right caudal lung segments. Half the animals (5 sheep) received pinocembrin to the right caudal lung segments, while the other 5 sheep received pinocembrin to the left caudal lung segments. The right medial lung segment was left untreated and used for healthy lung control tissue which was sampled at autopsy (FIG. 2).
For each of the bronchoalveolar (BAL) samplings at the timepoints listed in FIG. 1, the endoscope was manipulated into a specific lung-segment for sampling, usually passing through about 3-4 airway branches. For BAL sampling, 10 ml of sterile saline was infused through the biopsy port of the endoscope into the specific lung-segment and then recovered into a syringe through the same port. This procedure recovered between 3 and 5 ml of BAL fluid. The sampling method collects cells for analyses from the small airway and alveolar lumens of the specific lung-segment where the bronchoscope was navigated to. The BAL cells from each segment were centrifuged onto glass slides and stained for differential cell counting of inflammatory cells with Hem-Quik.

The test system is the same in data set [4]. The experiment in a line: Example 2: Masson's trichrome assay of connective tissue content. In kind it is in vivo.
Description: as §1
All sheep (n=10) in the study were challenged with 2 single doses of bleomycin (3 units) per lung segment, a fortnight apart and the animals were kept for a little over 5 weeks after the final bleomycin dose. Bleomycin is a well-known agent for inducing fibrosis in the lungs. […]
The degree of fibrosis was quantified by assessing the changes in overall connective tissue content within the parenchymal tissue using methods known to the skilled person. […] The images were then analysed using Image-Pro® Plus (Version 6.3 for Windows, Media Cybernetics, Bethesda, Md., USA) using the ‘colour selector’ tool to measure the area of blue-stained tissues (collagen and other connective tissues) within each field of view. […] The fraction of blue stained tissue area was expressed as a percentage per total field area (percentage of blue stained tissue area per total field area). […]

Data set [5] concerns sheep model of lung disease, bleomycin-induced lung damage. The experiment in a line: Example 1: bleomycin sheep pulmonary model, lung function, inflammation and fibrosis (3 sheep). It counts as in vivo. The text has this:
In animal models, bleomycin is the most widely used agent to characterise pulmonary fibrosis. In the sheep model, intratracheal administrations of two doses of bleomycin is used to induce fibrosis in the lung parenchyma. The overall study protocol is shown at FIG. 1.
For this example, three female merino sheep aged between 9 months and 1 year were utilised. Animals were housed indoors and received anthelminthic to treat for any existing parasitic disease. The sheep were judged to be free from significant pulmonary disease on the basis of clinical examination before the commencement of experiments and on inspection of gross pathology at autopsy. The Animal Experimentation Ethics Committee of the University of Melbourne, which adheres to the Australian Code of Practice for the care and use of laboratory animals for scientific purposes, approved all experimental procedures outlined below.
Bleomycin sulphate was made up at a concentration of 0.6 U bleomycin/mL saline and administered to the left and right caudal lobes at a rate of 3 U per segment to cause injury to the tissue and trigger fibrosis. For the left caudal lobe, 7 mg of pinocembrin in 10% DMSO was administered to test the efficacy of pinocembrin in the treatment or prevention of bleomycin-induced fibrosis. For the right caudal lobe injury was induced by bleomycin, and DMSO alone administered such that any differential effects between the left and right caudal lobes could be attributed to the pinocembrin.
A saline solution was administered to the right medial lobe, as a sham treatment.
Each of the bleomycin, bleomycin/pinocembrin, and saline compositions was administered via the biopsy port of a fibre-optic bronchoscope to the appropriate lung segments as a 5 ml bolus.
Timing of the administration of the various compositions is summarised at FIG. 1, with all three sheep euthanized at week 12.
The sheep were euthanized by an intravenous overdose of barbiturate (Lethabarb, Veterinary Clinic, University of Melbourne, Werribee, Australia) at week 12 as outlined in FIG. 1 for tissue collection and analysis.
Following euthanasia, the lungs were removed and targeted lung segments identified and carefully dissected free from surrounding tissue. Individual segments were then inflated with a 1:1 mixture of OCT and sterile PBS solution. […]
Segmental compliance (Cseg) was assessed using pressure responses to flow in the different segments as indicated FIG. 2 in awake, consciously breathing sheep using a wedged-bronchoscope technique. […]
Segmental lung compliance was calculated. […] Segmental compliance was then calculated from the pressure-flow decay curve generated from this procedure. The process was repeated 3 times for each segment and expressed as an average value for Cseg. […]

The mark [6] stands for this setting: week 12, vs bleomycin alone without pinocembrin, 4 weekly infusions of 7 mg, n=10 sheep.
Setting [7] is: 7 mg pinocembrin in 10% DMSO, 4 weekly doses, left vs right caudal segment.

“Also recorded” adds a separate entry of the source.

As for `O=C1CC(c2ccccc2)Oc2cc(O)cc(O)c21` (stereo not shown) [pinocembrin, 5,7-Dihydroxy-2-Phenyl-2,3-Dihydro-4H-Chromen-4-One], the “anti-inflammatory properties (overall)” value in data set [1] (from BAL cell and parenchymal T cell data) is on record as “strong anti-inflammatory properties”. The “anti-fibrotic effect (overall)” value in data set [1] (from fibrosis scores, Masson's trichrome and hydroxy proline assays) was “modest anti-fibrotic effect”. The “temperature survived for extended periods” value in data set [2] was “up to 68 °C”. In addition, the “sheep with lower inflammatory cell numbers in BAL fluid” value in data set [3] (individual sheep data, vs bleomycin without pinocembrin, 10 sheep) is on record as “Nine out of ten”. Moreover, the “neutrophil, % of total BAL cells” value in data set [3] (pinocembrin-treated bleomycin-injured lung segments (7.4% in bleomycin without drug)) is reported as 3.7%. Moreover, in data set [3] (setting [6]), the “numbers of inflammatory cells (neutrophils, eosinophils and lymphocytes) in BAL fluid” value is reported as “significantly lower; also recorded: significantly reduces”; the “numbers of neutrophils in BAL fluid” value was “significantly lower”. For the same compound, the “sheep with decreased percentage blue values” in data set [4] (individual sheep data, vs bleomycin injury without pinocembrin, 10 sheep) is listed as “nine out of ten”. In data set [4] (vs bleomycin-infused lung without pinocembrin, 4 weekly treatments of 7 mg, n=10 sheep), the “percentage blue staining, Masson's Trichrome stained connective tissue” value is reported as “significantly reduces; also recorded: significant decrease; also recorded: significantly lower”. Moreover, in data set [5], the “beneficial effect of pinocembrin (significance, number of sheep)” value was “statistically significant and noted in all three sheep”. The lung function entry in data set [5] (7 mg pinocembrin in 10% DMSO, 4 weekly doses, bleomycin-injured left caudal segment vs right caudal segment (bleomycin + DMSO)) is listed as “improvement”. For the same compound, in data set [5] (setting [7]), the fibrosis result is “decrease” and the inflammation entry is given as “decrease”.

Values taken from US20230172901A1, “COMPOSITIONS AND METHODS FOR THE PROPHYLAXIS AND TREATMENT OF FIBROTIC AND INFLAMMATORY CONDITIONS” (GRETALS AUSTRALIA PTY LTD, priority 2020, published 2023).
